Target: T1, NosL (Streptomyces actuosus, UniProt C6FX51)
T1 sequence (C6FX51 1-400): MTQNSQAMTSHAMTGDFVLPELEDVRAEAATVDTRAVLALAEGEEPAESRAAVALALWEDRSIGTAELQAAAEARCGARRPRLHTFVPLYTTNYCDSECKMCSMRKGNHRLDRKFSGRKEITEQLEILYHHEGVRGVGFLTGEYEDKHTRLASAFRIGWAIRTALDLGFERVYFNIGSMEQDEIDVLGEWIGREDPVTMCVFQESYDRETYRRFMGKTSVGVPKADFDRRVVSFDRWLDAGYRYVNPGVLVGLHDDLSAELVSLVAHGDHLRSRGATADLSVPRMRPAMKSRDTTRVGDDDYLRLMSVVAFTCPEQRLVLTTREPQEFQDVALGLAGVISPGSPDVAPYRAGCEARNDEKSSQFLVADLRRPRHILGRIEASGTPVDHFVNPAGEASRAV
Details: with L-Trp; otherwise same

C[S+](CC[C@H](N)C(=O)O)C[C@H]1O[C@@H](n2cnc3c(N)ncnc32)[C@H](O)[C@@H]1O (stereo partly shown) [S-AdoMet]
HPLC-MS of product 5'-deoxyadenosine: S-AdoMet consumption was independent of L-Trp, but significantly enhanced by adding L-Trp

Reference: publication PMC3079562 (Nature chemical biology, 2011)
